Patent publication US20160166560A1, “Urea Compounds and Their Use as FAAH Enzyme Inhibitors” (BIAL-PORTELA & Cª, S.A., priority 2013, published 2016)
Structures can show the parent of a compound that is named as a salt.

Experiments:
[1] = system: CYPs; assay: CYPs metabolic stability assay in HLM (human liver microsomes); assay type: in vitro ADME; details: HLM 1 mg/ml protein, compound 5 μM, 60 min, 37° C.; for Control (% remain): absence of NADPH; for CYP+ (% remain): with NADPH 1 mM
Description: Stability of the test compounds was performed in HLM (human liver microsomes) in the presence and in the absence of NADPH.
The stability was measured using the incubation mixture (100 μl total volume) contained 1 mg/ml total protein, MgCl2 5 mM and 50 mM K-phosphate buffer. Samples were incubated in the presence and in the absence of NADPH 1 mM. Reactions were pre-incubated 5 min and the reaction initiated with the compound under test (at a concentration of 5 μM). Samples were incubated for 60 min in a shaking water bath at 37° C. The reaction was stopped by adding 100 μl of acetonitrile. Samples were then centrifuged, filtered and supematant injected in HLPC-MSD. Test compounds were dissolved in DMSO and the final concentration of DMSO in the reaction was below 0.5% (v/v). At T0 acetonitrile was added before adding the compound. All experiments were performed with samples in duplicate.

[2] = Solubility assay in purified water; assay type: physicochemical; details: pH 5.7, thermodynamic from solid; purified water pH=5.6-5.8, stirring 2 h, room temperature, HPLC
Description: A saturated solution was prepared by adding the test compound in excess to 1 mL of purified water (pH=5.6-5.8) followed by stirring of the mixture for 2 h at room temperature. Thereupon, the un-dissolved material was removed by filtration and the amount of test compound in the filtrate was quantified by HPLC using a calibration curve.

[3] = target: T1, FAAH (Mus musculus, UniProt O08914); assay: In vitro/ex vivo FAAH activity determination in brain after intra-tracheal instillation; set-up: Liver and brain fragments were removed and processed for enzymatic activity determination; from tissue; species or system male NMRI mice; details: remaining enzymatic activity vs controls
T1 sequence (O08914 1-579): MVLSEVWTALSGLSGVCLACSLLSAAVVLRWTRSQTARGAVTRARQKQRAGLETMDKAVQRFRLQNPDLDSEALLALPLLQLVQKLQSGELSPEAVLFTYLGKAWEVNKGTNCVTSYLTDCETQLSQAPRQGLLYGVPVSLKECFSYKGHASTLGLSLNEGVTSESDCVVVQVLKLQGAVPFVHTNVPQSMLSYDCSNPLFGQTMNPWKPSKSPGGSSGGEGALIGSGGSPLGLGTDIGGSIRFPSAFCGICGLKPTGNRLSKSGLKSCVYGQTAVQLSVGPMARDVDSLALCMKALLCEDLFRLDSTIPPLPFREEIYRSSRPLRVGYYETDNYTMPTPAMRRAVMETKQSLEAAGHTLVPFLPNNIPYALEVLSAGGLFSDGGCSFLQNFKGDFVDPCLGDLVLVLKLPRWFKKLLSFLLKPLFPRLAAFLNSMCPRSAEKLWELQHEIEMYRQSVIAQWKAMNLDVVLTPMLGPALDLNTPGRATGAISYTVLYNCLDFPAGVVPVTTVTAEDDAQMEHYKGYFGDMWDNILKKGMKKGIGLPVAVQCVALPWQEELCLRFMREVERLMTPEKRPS
Description: (§1) To evaluate the selectivity of test compounds in inhibiting FAAH activity, male NMRI mice were administrated following instillation with 1 mg/kg compound and were sacrificed after 8 h treatment. Liver and brain fragments were removed and processed for enzymatic activity determination.
(§2) FAAH activity was measured as the amount of ^3H-ethanolamine formed, by liquid scintillation counting, from the hydrolysis of the substrate anandamide (AEA, labeled with ^3H on the ethanolamine part of the molecule). The percentage of remaining enzymatic activity was calculated in respect to controls and after blank subtraction. Therefore, a low value for the test compounds indicates a strong inhibitor.
(§3) Male NMRI mice (body weight range: 25-35 g) were obtained from Harlan Laboratories (Barcelona, Spain). Animals were kept 10 per cage, under controlled environmental conditions (12 hr light [8 am]/12 hr dark [8 pm]cycle; room temperature 22±1° C.). Food and tap water were allowed ad libitum. Animals were habituated to the animal facilities at least for a week prior to experiments. The experiments were all carried out during daylight hours.
(§4) Animals were fasted overnight before administration of compounds. […] After administration the animals were given atipamezole (1 mg/kg) to reverse the sedative and analgesic effects induced by the anaesthesia.
(§5) Fifteen minutes before sacrifice, animals were anesthetized with pentobarbital 60 mg/kg administrated intra-peritoneally. The brain (without cerebellum) and a fragment of liver were collected into plastic vials containing membrane buffer (3 mM MgCl2, 1 mM EDTA, 50 mM Tris HCl, pH 7.4). Glass beads (2.5 mm BioSpec Products, Bartlesville, Okla., USA) were added to the vials containing the brain and liver tissues. Tissues were stored at −20° C. until analysis.
(§6) Anandamide [ethanolamine-1-^3H-] was obtained from American Radiochemicals—with a specific activity of 60 Ci/mmol. All other reagents were obtained from Sigma-Aldrich. Optiphase Supermix was obtained from Perkin Elmer.
(§7) Brain and liver tissues were thawed and homogenized in 10 volumes of membrane buffer (3 mM MgCl2, 1 mM EDTA, 50 mM Tris HCl, pH 7.4) with homogenizer Precellys 24 Dual Tissue Homogenizer (Bertin Technologies) for 2 cycles of 5 sec (5000 rpm).
(§8) Total protein in the tissue homogenates was determined with the BioRad Protein Assay (BioRad) using a standard curve of BSA ([…]). Tissue homogenates were diluted to appropriate concentration for enzymatic determination in assay buffer (1 mM EDTA, 10 mM Tris HCl, pH 7.6).
(§9) Reaction mix (total volume 200 μL) contained 2 μM AEA (2 μM AEA+5 nM ^3H-AEA), 0.1% fatty acid free BSA, 15 μg (brain) or 5 μg (liver) protein, in assay buffer (1 mM EDTA, 10 mM Tris pH 7.6).
(§10) The test compound was used at a level of 1 mg/kg protein. After 15 minutes pre-incubation at 37° C. of the protein sample, reaction was started by the addition of the substrate solution (cold AEA+radiolabelled AEA+BSA). Reaction was carried out for 12 minutes for brain and liver tissues. Reaction was terminated by addition of 400 μL chloroform:methanol (1:1, v/v) solution. Reaction samples were vortex twice, left on ice for 5 minutes and then centrifuged in the microfuge for 7 minutes, 7000 rpm. 200 μL of the obtained supernatants were added to […] Optiphase Supermix scintillation cocktail previously distributed in 24-well plates.
(§11) Counts per minute (cpm) were determined in a Microbeta TriLux scintillation counter. In each assay blank samples (without protein) were prepared.

[4] = target: T1, FAAH; assay: In vitro/ex vivo FAAH activity determination in liver after intra-tracheal instillation; set-up: Liver and brain fragments were removed and processed for enzymatic activity determination; from tissue; host or cells: mouse liver fragment homogenate; species or system male NMRI mice; details: remaining enzymatic activity vs controls
Description: as §1, §2, §3, §4, §5, §6, §7, §8, §9, §10, §11

[5] = 1 mg/kg intra-tracheal instillation, sacrificed after 8 h
[6] = tested at 0.1 mg/kg rather than 1 mg/kg

Compound	Control (% remain) [1]	CYP+ (% remain) [1]	solubility at 2 h [2]	FAAH Activity - Brain itc (% C) [3, 5]	FAAH Activity - Liver itc (% C) [4, 5]	FAAH Activity - Brain itc (% C) [3, 6]	FAAH Activity - Liver itc (% C) [4, 6]
COc1cccc(CN2CCC(N(C)C(=O)n3cnc(-c4cccc(NS(N)(=O)=O)c4)c3)CC2)c1 [Example 3, N-(1-(3-methoxybenzyl)piperidin-4-yl)-N-methyl-4-(3-(sulfamoylamino)phenyl)-1H-imidazole-1-carboxamide hydrochloride]	103.5 % remain	17.5 % remain	7.7 mg/mL	96.0 % C	5.3 % C		
COc1cccc(CN2CCC(N(C)C(=O)n3cnc(-c4cccc(NC(N)=O)c4)c3)CC2)c1.Cl [Example 17, N-(1-(3-methoxybenzyl)piperidin-4-yl)-N-methyl-4-(3-ureidophenyl)-1 H-imidazole-1-carboxamide hydrochloride]	103.4 % remain	21.4 % remain	14.1 mg/mL	91.9 % C	4.2 % C		
CN(C(=O)n1cnc(-c2cccc(NC(N)=O)c2)c1)C1CCN(Cc2ccccc2)CC1.O=C(O)/C=C\C(=O)O [Example 21, N-(1-benzylpiperidin-4-yl)-N-methyl-4-(3-ureidophenyl)-1H-imidazole-1-carboxamide maleate]			4.3 mg/mL	92.4 % C	8.2 % C		
COc1cccc(CN2CCC(N(C)C(=O)n3cnc(-c4cccc(NS(N)(=O)=O)c4)c3)CC2)c1.CS(=O)(=O)O [Example 23, N-(1-(3-methoxybenzyl)piperidin-4-yl)-N-methyl-4-(3-(sulfamoylamino)phenyl)-1H-imidazole-1-carboxamide methanesulfonate]			> 16 mg/mL	82.1 % C	11.5 % C		
CN(C(=O)n1cnc(-c2ccc(OS(N)(=O)=O)cc2)c1)C1CCN(c2ccc(O)cc2)CC1 [Example 28, 4-(1-((1-(4-hydroxyphenyl)piperidin-4-yl)(methyl)carbamoyl)-1H-imidazol-4-yl)phenyl sulfamate hydrochloride]	84.8 % remain	66.0 % remain		91.0 % C	3.4 % C		
CN(C(=O)n1cnc(-c2cccc(OS(N)(=O)=O)c2)c1)C1CCN(c2ccc(Br)c(O)c2)CC1 [Example 29, 3-(1-((1-(4-bromo-3-hydroxyphenyl)piperidin-4-yl)(methyl)carbamoyl)-1 H-imidazol-4-yl)phenyl sulfamate hydrochloride]	79.6 % remain	79.5 % remain		97.6 % C	10.5 % C		
CN(C(=O)n1cnc(-c2cccc(OS(N)(=O)=O)c2)c1)C1CCN(Cc2ccc3c(c2)OCO3)CC1 [Example 30, 3-(1-((1-(benzo[d][1,3]dioxol-5-ylmethyl)piperidin-4-yl)(methyl)carbamoyl)-1H-imidazol-4-yl)phenyl sulfamate hydrochloride]	97.8 % remain	64.8 % remain		107.1 % C	13.7 % C		
COc1cc(CN2CCC(N(C)C(=O)n3cnc(-c4cccc(C(N)=O)c4)c3)CC2)ccc1F [Example 31, 4-(3-carbamoylphenyl)-N-(1-(4-fluoro-3-methoxybenzyl)piperidin-4-yl)-N-methyl-1H-imidazole-1-carboxamide hydrochloride]	111.7 % remain	18.5 % remain				87.7 % C	13.1 % C
COc1ccc(F)c(CN2CCC(N(C)C(=O)n3cnc(-c4cccc(C(N)=O)c4)c3)CC2)c1 [Example 32, 4-(3-carbamoylphenyl)-N-(1-(2-fluoro-5-methoxybenzyl)piperidin-4-yl)-N-methyl-1H-imidazole-1-carboxamide hydrochloride]	115.2 % remain	14.2 % remain				96.0 % C	12.8 % C
COc1ccc(CN2CCC(N(C)C(=O)n3cnc(-c4cccc(C(N)=O)c4)c3)CC2)cc1 [Example 33, 4-(3-carbamoylphenyl)-N-(1-(4-methoxybenzyl)piperidin-4-yl)-N-methyl-1H-imidazole-1-carboxamide hydrochloride]	112.2 % remain	70.4 % remain	> 14.9 mg/mL	102 % C	3.4 % C		
COc1ccccc1N1CCC(N(C)C(=O)n2cnc(-c3cccc(C(N)=O)c3)c2)CC1 [Example 34, 4-(3-carbamoylphenyl)-N-(1-(2-methoxyphenyl)piperidin-4-yl)-N-methyl-1 H-imidazole-1-carboxamide hydrochloride]	105.4 % remain	9.1 % remain	> 14.7 mg/mL	78.7 % C	3.3 % C		
CN(C(=O)n1cnc(-c2cccc(C(N)=O)c2)c1)C1CCN(c2ccc(O)cc2)CC1 [Example 35, 4-(3-carbamoylphenyl)-N-(1-(4-hydroxyphenyl)piperidin-4-yl)-N-methyl-1H-imidazole-1-carboxamide hydrochloride]	73.8 % remain	81.0 % remain	10.2 mg/mL	96.6 % C	4.3 % C		
